Results published in BigSolDB 2.1.

Cc1cc(C#N)c(Nc2ccccc2[N+](=O)[O-])s1
Details	solubility (mole fraction)
in DMSO, 292.15 K	0.0519
in DMSO, 297.15 K	0.0588
in DMSO, 301.15 K	0.0671
in DMSO, 306.15 K	0.0734
in DMSO, 310.15 K	0.0801
in DMSO, 316.15 K	0.0913
in DMSO, 320.15 K	0.101
in DMSO, 325.15 K	0.112
in DMSO, 328.15 K	0.123
in DMSO, 332.15 K	0.135
in acetic acid, 293.15 K	0.00487
in acetic acid, 297.15 K	0.00588
in acetic acid, 302.15 K	0.00725
in acetic acid, 307.15 K	0.00881
in acetic acid, 311.15 K	0.0109
in acetic acid, 316.15 K	0.0127
in acetic acid, 320.15 K	0.0159
in acetic acid, 325.15 K	0.0202
in acetic acid, 329.15 K	0.0248
in acetic acid, 333.15 K	0.0306
in acetone, 292.15 K	0.0262
in acetone, 296.15 K	0.0322
in acetone, 302.15 K	0.0377
in acetone, 305.15 K	0.0444
in acetone, 311.15 K	0.0513
in acetone, 316.15 K	0.0604
in ethanol, 292.15 K	0.00106
in ethanol, 296.15 K	0.00131
in ethanol, 302.15 K	0.00163
in ethanol, 306.15 K	0.00214
in ethanol, 311.15 K	0.00274
in ethanol, 315.15 K	0.00345
in ethanol, 320.15 K	0.00427
in ethanol, 325.15 K	0.00528
in ethanol, 329.15 K	0.00638
in ethanol, 334.15 K	0.00766
in ethyl acetate, 293.15 K	0.0199
in ethyl acetate, 296.15 K	0.0227
in ethyl acetate, 302.15 K	0.0255
in ethyl acetate, 306.15 K	0.0315
in ethyl acetate, 311.15 K	0.0379
in ethyl acetate, 315.15 K	0.0442
in ethyl acetate, 320.15 K	0.0494
in ethyl acetate, 324.15 K	0.0591
in ethyl acetate, 329.15 K	0.0713
in ethyl acetate, 333.15 K	0.0858
in methanol, 292.15 K	0.00109
in methanol, 297.15 K	0.00145
in methanol, 302.15 K	0.00186
in methanol, 306.15 K	0.00233
in methanol, 311.15 K	0.00291
in methanol, 315.15 K	0.00368
in methanol, 320.15 K	0.00464
in methanol, 324.15 K	0.00575
